ChEMBL document CHEMBL3769397, “A new GLP-1 analogue with prolonged glucose-lowering activity in vivo via backbone-based modification at the N-terminus” (Bioorg Med Chem, 2016)

Legend:
Mus musculus [1] = assay: Reduction in blood glucose in Kunming mouse assessed as blood glucose level at 25 nmol/kg, ip at administered 0 mins followed by first glucose challenge at 40 mins followed by second glucose challenge at 310 mins and measured at 385 mins by glucose tolerance test (reference value: 4.9 to 6.3 mmol/L); type: functional
Mus musculus [2] = assay: Reduction in blood glucose in Kunming mouse assessed as blood glucose level at 25 nmol/kg, ip at administered 0 mins followed by first glucose challenge at 40 mins followed by second glucose challenge at 310 mins and measured at 350 mins by glucose tolerance test (reference value: 4.9 to 6.3 mmol/L); type: functional
Mus musculus [3] = assay: Reduction in blood glucose in Kunming mouse assessed as blood glucose level at 25 nmol/kg, ip at administered 0 mins followed by first glucose challenge at 40 mins followed by second glucose challenge at 310 mins and measured at 55 mins by glucose tolerance test (reference value: 4.9 to 6.3 mmol/L); type: functional
Mus musculus [4] = assay: Reduction in blood glucose in Kunming mouse assessed as blood glucose level at 25 nmol/kg, ip at administered 0 mins followed by first glucose challenge at 40 mins followed by second glucose challenge at 310 mins and measured at 80 mins by glucose tolerance test (reference value: 4.9 to 6.3 mmol/L); type: functional
Mus musculus [5] = assay: Reduction in blood glucose in Kunming mouse assessed as blood glucose level at 25 nmol/kg, ip at administered 0 mins followed by first glucose challenge at 40 mins followed by second glucose challenge at 310 mins and measured at 115 mins by glucose tolerance test (reference value: 4.9 to 6.3 mmol/L); type: functional
Mus musculus [6] = assay: Reduction in blood glucose in Kunming mouse assessed as blood glucose level at 25 nmol/kg, ip at administered 0 mins followed by first glucose challenge at 40 mins followed by second glucose challenge at 310 mins and measured at 325 mins by glucose tolerance test (reference value: 4.9 to 6.3 mmol/L); type: functional
Mus musculus [7] = assay: Reduction in blood glucose in Kunming mouse assessed as blood glucose level at 25 nmol/kg, ip at administered 0 mins followed by first glucose challenge at 40 mins followed by second glucose challenge at 310 mins and measured at 310 mins by glucose tolerance test (reference value: 4.9 to 6.3 mmol/L); type: functional
Mus musculus [8] = assay: Reduction in blood glucose in Kunming mouse assessed as blood glucose level at 25 nmol/kg, ip at administered 0 mins followed by first glucose challenge at 40 mins followed by second glucose challenge at 310 mins and measured at 160 mins by glucose tolerance test (reference value: 4.9 to 6.3 mmol/L); type: functional
Mus musculus [9] = assay: Reduction in blood glucose in Kunming mouse assessed as blood glucose level at 25 nmol/kg, ip at administered 0 mins followed by first glucose challenge at 40 mins followed by second glucose challenge at 310 mins and measured at 40 mins by glucose tolerance test (reference value: 4.9 to 6.3 mmol/L); type: functional
Mus musculus [10] = assay: Reduction in blood glucose in Kunming mouse assessed as blood glucose level at 25 nmol/kg, ip at administered 0 mins followed by first glucose challenge at 40 mins followed by second glucose challenge at 310 mins and measured at 430 mins by glucose tolerance test (reference value: 4.9 to 6.3 mmol/L); type: functional
[11] = target: Glucagon-like peptide 1 receptor (Homo sapiens, UniProt P43220); assay: Activation of human GLP1R expressed in HEK293 cells preincubated for 30 mins followed by addition of cAMP-d2 conjugate/cryptate conjugate incubated for 60 mins by fluorescence analysis; type: functional, cell-based
[12] = Retention time of compound over 30 mins by HPLC analysis; type: physicochemical; details: 0.5 h
[13] = target: T1, DPP4 (dipeptidyl peptidase 4) (Homo sapiens, UniProt P27487); assay: Half life of compound assessed as recombinant human DPP4-mediated cleavage by RP-HPLC analysis; type: ADME
[14] = target: T1, DPP4 (dipeptidyl peptidase 4); assay: Drug degradation assessed as recombinant human DPP4-mediated cleavage by measuring compound remaining after 48 hrs by RP-HPLC analysis; type: ADME; details: read-out: Stability
[15] = target: T1, DPP4 (dipeptidyl peptidase 4); assay: Drug degradation assessed as recombinant human DPP4-mediated cleavage by measuring compound remaining after 96 hrs by RP-HPLC analysis; type: ADME; details: read-out: Stability
[16] = target: T1, DPP4 (dipeptidyl peptidase 4); assay: Drug degradation assessed as recombinant human DPP4-mediated cleavage by measuring compound remaining after 72 hrs by RP-HPLC analysis; type: ADME; details: read-out: Stability
[17] = target: T1, DPP4 (dipeptidyl peptidase 4); assay: Drug degradation assessed as recombinant human DPP4-mediated cleavage by measuring compound remaining after 12 hrs by RP-HPLC analysis; type: ADME; details: read-out: Stability
[18] = target: T1, DPP4 (dipeptidyl peptidase 4); assay: Drug degradation assessed as recombinant human DPP4-mediated cleavage by measuring compound remaining after 24 hrs by RP-HPLC analysis; type: ADME; details: read-out: Stability
Mus musculus [19] = assay: Reduction in blood glucose in Kunming mouse assessed as blood glucose AUC at 25 nmol/kg, ip at administered 0 mins followed by first glucose challenge at 40 mins measured at 80 mins by glucose tolerance test relative to control; type: functional; design: scale not given: the % may be the effect or the level left
Mus musculus [20] = assay: Reduction in blood glucose in Kunming mouse assessed as blood glucose AUC at 25 nmol/kg, ip at administered 0 mins followed by first glucose challenge at 40 mins followed by second glucose challenge at 310 mins and measured at 325 mins by glucose tolerance test relative to control; type: functional; design: scale not given: the % may be the effect or the level left
Mus musculus [21] = assay: Reduction in blood glucose in Kunming mouse assessed as blood glucose peak value at 25 nmol/kg, ip at administered 0 mins followed by first glucose challenge at 40 mins followed by second glucose challenge at 310 mins and measured at 325 mins by glucose tolerance test relative to control; type: functional; design: scale not given: the % may be the effect or the level left
Mus musculus [22] = assay: Reduction in blood glucose in Kunming mouse assessed as blood glucose peak value at 25 nmol/kg, ip at administered 0 mins followed by first glucose challenge at 40 mins measured at 80 mins by glucose tolerance test relative to control; type: functional; design: scale not given: the % may be the effect or the level left

T1 sequence (P27487 whole entry): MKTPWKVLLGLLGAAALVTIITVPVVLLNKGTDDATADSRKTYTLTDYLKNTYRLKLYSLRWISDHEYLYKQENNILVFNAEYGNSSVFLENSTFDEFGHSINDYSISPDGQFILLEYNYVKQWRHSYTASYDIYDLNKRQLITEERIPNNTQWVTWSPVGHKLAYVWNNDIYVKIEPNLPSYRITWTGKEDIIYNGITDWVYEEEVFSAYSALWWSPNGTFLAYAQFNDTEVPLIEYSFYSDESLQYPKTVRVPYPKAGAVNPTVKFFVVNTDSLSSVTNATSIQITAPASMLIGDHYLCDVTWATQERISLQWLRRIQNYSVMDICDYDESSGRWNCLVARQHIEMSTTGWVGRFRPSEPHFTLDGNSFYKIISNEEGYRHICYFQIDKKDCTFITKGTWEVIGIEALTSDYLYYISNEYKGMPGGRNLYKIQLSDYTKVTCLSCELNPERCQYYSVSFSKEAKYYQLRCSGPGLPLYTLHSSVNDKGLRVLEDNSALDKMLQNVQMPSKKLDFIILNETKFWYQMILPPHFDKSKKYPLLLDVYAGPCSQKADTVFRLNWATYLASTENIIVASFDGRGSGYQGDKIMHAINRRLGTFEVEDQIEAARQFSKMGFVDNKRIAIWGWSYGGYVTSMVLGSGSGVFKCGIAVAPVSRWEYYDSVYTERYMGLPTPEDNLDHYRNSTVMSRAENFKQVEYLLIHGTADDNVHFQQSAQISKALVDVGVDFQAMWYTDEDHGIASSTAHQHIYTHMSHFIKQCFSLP
Glucagon-like peptide 1 receptor, sequence (P43220 whole entry): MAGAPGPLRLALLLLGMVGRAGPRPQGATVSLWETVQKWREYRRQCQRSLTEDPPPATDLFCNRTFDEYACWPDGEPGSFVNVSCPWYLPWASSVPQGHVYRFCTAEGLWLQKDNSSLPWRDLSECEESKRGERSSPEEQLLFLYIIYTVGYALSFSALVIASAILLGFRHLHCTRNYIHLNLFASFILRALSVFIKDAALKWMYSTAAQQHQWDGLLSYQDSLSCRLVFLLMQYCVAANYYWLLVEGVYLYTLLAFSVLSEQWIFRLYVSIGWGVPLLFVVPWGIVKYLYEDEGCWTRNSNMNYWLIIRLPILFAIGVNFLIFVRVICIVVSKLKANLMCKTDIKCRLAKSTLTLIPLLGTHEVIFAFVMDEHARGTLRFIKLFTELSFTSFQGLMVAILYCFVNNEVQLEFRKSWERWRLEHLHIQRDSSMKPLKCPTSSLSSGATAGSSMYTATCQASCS

Row | EC50 [11] | Retention_time [12] | half-life [13] | remaining at 48 h [14] | remaining at 96 h [15] | remaining at 72 h [16] | remaining at 12 h [17] | remaining at 24 h [18] | Structure (SMILES) | Activity (Mus musculus [1]) | Activity (Mus musculus [2]) | Activity (Mus musculus [3]) | Activity (Mus musculus [4]) | Activity (Mus musculus [5]) | Activity (Mus musculus [6]) | Activity (Mus musculus [7]) | Activity (Mus musculus [8]) | Activity (Mus musculus [9]) | Activity (Mus musculus [10]) | further results
1 |  |  |  |  |  |  |  |  | CC[C@H](C)[C@H](NC(=O)[C@H](Cc1ccccc1)NC(=O)[C@H](CCC(=O)O)NC(=O)[C@H](CCCCN)NC(=O)[C@H](C)NC(=O)[C@H](C)NC(=O)[C@H](CCC(N)=O)NC(=O)CNC(=O)[C@H](CCC(=O)O)NC(=O)[C@H](CC(C)C)NC(=O)[C@H](Cc1ccc(O)cc1)NC(=O)[C@H](CO)NC(=O)[C@H](CO)NC(=O)[C@@H](NC(=O)[C@H](CC(=O)O)NC(=O)[C@H](CO)NC(=O)[C@@H](NC(=O)[C@H](Cc1ccccc1)NC(=O)[C@@H](NC(=O)CNC(=O)[C@H](CCC(=O)O)NC(=O)C1(NC(=O)[C@@H](N)Cc2cnc[nH]2)CC1)[C@@H](C)O)[C@@H](C)O)C(C)C)C(=O)N[C@@H](C)C(=O)N[C@@H](Cc1c[nH]c2ccccc12)C(=O)N[C@@H](CC(C)C)C(=O)N[C@H](C(=O)N[C@@H](CCCCN)C(=O)NCC(=O)N[C@@H](CCCNC(=N)N)C(N)=O)C(C)C | 10.8 mmol/L | 19.8 mmol/L | 12.9 mmol/L | 17.2 mmol/L | 13.8 mmol/L | 21.2 mmol/L | 5.9 mmol/L | 6.5 mmol/L | 7.5 mmol/L | 7.1 mmol/L | 
2 |  |  |  |  |  |  |  |  | CC[C@H](C)[C@H](NC(=O)[C@H](Cc1ccccc1)NC(=O)[C@H](CCC(=O)O)NC(=O)[C@H](CCCCN)NC(=O)[C@H](C)NC(=O)[C@H](C)NC(=O)[C@H](CCC(N)=O)NC(=O)CNC(=O)[C@H](CCC(=O)O)NC(=O)[C@H](CC(C)C)NC(=O)[C@H](Cc1ccc(O)cc1)NC(=O)[C@H](CO)NC(=O)[C@H](CO)NC(=O)[C@@H](NC(=O)[C@H](CC(=O)O)NC(=O)[C@H](CO)NC(=O)[C@@H](NC(=O)[C@H](Cc1ccccc1)NC(=O)[C@@H](NC(=O)CNC(=O)[C@H](CCC(=O)O)NC(=O)[C@H](C)CNC(=O)[C@@H](N)Cc1cnc[nH]1)[C@@H](C)O)[C@@H](C)O)C(C)C)C(=O)N[C@@H](C)C(=O)N[C@@H](Cc1c[nH]c2ccccc12)C(=O)N[C@@H](CC(C)C)C(=O)N[C@H](C(=O)N[C@@H](CCCCN)C(=O)NCC(=O)N[C@@H](CCCNC(=N)N)C(N)=O)C(C)C | 8.1 mmol/L | 16.5 mmol/L | 13.5 mmol/L | 16.6 mmol/L | 10.8 mmol/L | 23.4 mmol/L | 5.4 mmol/L | 6.9 mmol/L | 6.1 mmol/L | 7.8 mmol/L | 
3 | 76.6 pM | 13.997 min | > 96 h | 100% | 100% | 100% | 100% | 100% | CC[C@H](C)[C@H](NC(=O)[C@H](Cc1ccccc1)NC(=O)[C@H](CCC(=O)O)NC(=O)[C@H](CCCCN)NC(=O)[C@H](C)NC(=O)[C@H](C)NC(=O)[C@H](CCC(N)=O)NC(=O)CNC(=O)[C@H](CCC(=O)O)NC(=O)[C@H](CC(C)C)NC(=O)[C@H](Cc1ccc(O)cc1)NC(=O)[C@H](CO)NC(=O)[C@H](CO)NC(=O)[C@@H](NC(=O)[C@H](CC(=O)O)NC(=O)[C@H](CO)NC(=O)[C@@H](NC(=O)[C@H](Cc1ccccc1)NC(=O)[C@@H](NC(=O)CNC(=O)[C@H](CCC(=O)O)NC(=O)[C@H]1CCC[C@@H]1NC(=O)[C@@H](N)Cc1cnc[nH]1)[C@@H](C)O)[C@@H](C)O)C(C)C)C(=O)N[C@@H](C)C(=O)N[C@@H](Cc1c[nH]c2ccccc12)C(=O)N[C@@H](CC(C)C)C(=O)N[C@H](C(=O)N[C@@H](CCCCN)C(=O)NCC(=O)N[C@@H](CCCNC(=N)N)C(N)=O)C(C)C | 11.4 mmol/L | 19.2 mmol/L | 14.8 mmol/L | 15.9 mmol/L | 11.5 mmol/L | 22.8 mmol/L | 6.2 mmol/L | 9.1 mmol/L | 7 mmol/L | 8.7 mmol/L | 
4 | 32.9 pM | 13.751 min | > 96 h | 100% | 100% | 100% | 100% | 100% | CC[C@H](C)[C@H](NC(=O)[C@H](Cc1ccccc1)NC(=O)[C@H](CCC(=O)O)NC(=O)[C@H](CCCCN)NC(=O)[C@H](C)NC(=O)[C@H](C)NC(=O)[C@H](CCC(N)=O)NC(=O)CNC(=O)[C@H](CCC(=O)O)NC(=O)[C@H](CC(C)C)NC(=O)[C@H](Cc1ccc(O)cc1)NC(=O)[C@H](CO)NC(=O)[C@H](CO)NC(=O)[C@@H](NC(=O)[C@H](CC(=O)O)NC(=O)[C@H](CO)NC(=O)[C@@H](NC(=O)[C@H](Cc1ccccc1)NC(=O)[C@@H](NC(=O)CNC(=O)[C@H](CCC(=O)O)NC(=O)CCNC(=O)[C@@H](N)Cc1cnc[nH]1)[C@@H](C)O)[C@@H](C)O)C(C)C)C(=O)N[C@@H](C)C(=O)N[C@@H](Cc1c[nH]c2ccccc12)C(=O)N[C@@H](CC(C)C)C(=O)N[C@H](C(=O)N[C@@H](CCCCN)C(=O)NCC(=O)N[C@@H](CCCNC(=N)N)C(N)=O)C(C)C | 9.8 mmol/L | 16.8 mmol/L | 12.8 mmol/L | 16 mmol/L | 11.8 mmol/L | 19.6 mmol/L | 6.3 mmol/L | 7.8 mmol/L | 6.5 mmol/L | 6.8 mmol/L | Activity (Mus musculus [19]): 63%; Activity (Mus musculus [20]): 81%; Activity (Mus musculus [21]): 84%; Activity (Mus musculus [22]): 61%
